Where two headings read alike, the source gives them in different places.
Experiments:
[1] = target: T1, human muscarinic receptor subtype M4 (Homo sapiens, UniProt P08173); experiment: Muscarinic receptor binding, displacement of [3H]-NMS, membranes from transfected CHO cells; conditions: for binds to the M4 receptor more than to M3 (selectivity): M4 versus M3; for bind to M4 more than some of the other subtypes (selectivity): M4 versus some of the other subtypes, upper figure (as much as)
T1 sequence (P08173 1-479): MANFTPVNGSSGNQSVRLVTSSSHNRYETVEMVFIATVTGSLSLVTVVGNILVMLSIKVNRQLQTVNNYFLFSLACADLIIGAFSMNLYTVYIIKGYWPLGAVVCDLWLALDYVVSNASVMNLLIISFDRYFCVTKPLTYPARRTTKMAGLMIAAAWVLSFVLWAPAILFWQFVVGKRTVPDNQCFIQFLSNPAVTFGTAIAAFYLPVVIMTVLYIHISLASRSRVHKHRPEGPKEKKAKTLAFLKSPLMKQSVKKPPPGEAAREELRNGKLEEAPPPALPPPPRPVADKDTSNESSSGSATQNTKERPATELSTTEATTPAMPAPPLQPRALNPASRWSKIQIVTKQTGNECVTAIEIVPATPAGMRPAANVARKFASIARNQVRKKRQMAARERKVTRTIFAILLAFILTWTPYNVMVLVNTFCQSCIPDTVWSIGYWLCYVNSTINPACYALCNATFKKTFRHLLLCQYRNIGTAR
Description: (§1) The compounds were evaluated in standard assays used to measure muscarinic receptor binding, and they were compared with other benzoxazines described in Bioorganic & Medicinal Chemistry Letters 8, 1998:1991-1996, which is incorporated herein by reference. Specifically, the compounds were evaluated for their binding affinity toward five human muscarinic receptor subtypes (M1-M5) by the method of Dorje et al., J. Pharm. Exp. Ther. 1991;256:727-733, which is incorporated herein by reference. The binding was determined by measuring the displacement of [^3H]-NMS (N-methylscopolamine) binding using membranes from transfected Chinese hamster ovary (CHO) cells.

[2] = target: T2, human muscarinic receptor subtype M1 (Homo sapiens, UniProt P11229); experiment: as above
T2 sequence (P11229 1-460): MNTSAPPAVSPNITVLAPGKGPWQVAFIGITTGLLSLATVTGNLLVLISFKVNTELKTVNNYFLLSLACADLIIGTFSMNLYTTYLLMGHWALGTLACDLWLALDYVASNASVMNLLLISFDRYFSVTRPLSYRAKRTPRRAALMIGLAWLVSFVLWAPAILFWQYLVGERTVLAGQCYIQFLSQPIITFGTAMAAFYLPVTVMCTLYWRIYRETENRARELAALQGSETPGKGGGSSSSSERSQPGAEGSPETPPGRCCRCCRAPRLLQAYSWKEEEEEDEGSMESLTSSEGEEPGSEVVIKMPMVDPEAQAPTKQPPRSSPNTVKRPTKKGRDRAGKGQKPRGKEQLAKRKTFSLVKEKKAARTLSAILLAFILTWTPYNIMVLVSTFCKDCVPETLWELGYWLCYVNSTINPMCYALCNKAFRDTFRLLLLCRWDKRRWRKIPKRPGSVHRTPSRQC
Description: as §1

[3] = target: T3, human muscarinic receptor subtype M2 (Homo sapiens, UniProt P08172); experiment: as above
T3 sequence (P08172 1-466): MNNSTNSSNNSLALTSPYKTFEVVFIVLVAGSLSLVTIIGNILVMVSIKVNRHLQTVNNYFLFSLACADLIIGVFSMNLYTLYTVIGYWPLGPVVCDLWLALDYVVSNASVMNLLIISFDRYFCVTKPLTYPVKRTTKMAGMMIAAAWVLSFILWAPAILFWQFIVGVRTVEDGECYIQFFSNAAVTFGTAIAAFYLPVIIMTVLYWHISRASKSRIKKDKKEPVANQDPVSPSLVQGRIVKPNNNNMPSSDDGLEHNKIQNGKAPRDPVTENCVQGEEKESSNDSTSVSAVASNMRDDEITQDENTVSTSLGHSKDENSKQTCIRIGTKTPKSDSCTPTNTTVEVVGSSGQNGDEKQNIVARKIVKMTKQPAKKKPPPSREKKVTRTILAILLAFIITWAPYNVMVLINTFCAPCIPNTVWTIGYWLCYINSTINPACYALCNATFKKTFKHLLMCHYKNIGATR
Description: as §1

[4] = target: human muscarinic receptor subtype M3 (Homo sapiens, UniProt P20309); experiment: as above
Description: as §1

[5] = target: T4, human muscarinic receptor subtype M5 (Homo sapiens, UniProt P08912); experiment: as above
T4 sequence (P08912 1-532): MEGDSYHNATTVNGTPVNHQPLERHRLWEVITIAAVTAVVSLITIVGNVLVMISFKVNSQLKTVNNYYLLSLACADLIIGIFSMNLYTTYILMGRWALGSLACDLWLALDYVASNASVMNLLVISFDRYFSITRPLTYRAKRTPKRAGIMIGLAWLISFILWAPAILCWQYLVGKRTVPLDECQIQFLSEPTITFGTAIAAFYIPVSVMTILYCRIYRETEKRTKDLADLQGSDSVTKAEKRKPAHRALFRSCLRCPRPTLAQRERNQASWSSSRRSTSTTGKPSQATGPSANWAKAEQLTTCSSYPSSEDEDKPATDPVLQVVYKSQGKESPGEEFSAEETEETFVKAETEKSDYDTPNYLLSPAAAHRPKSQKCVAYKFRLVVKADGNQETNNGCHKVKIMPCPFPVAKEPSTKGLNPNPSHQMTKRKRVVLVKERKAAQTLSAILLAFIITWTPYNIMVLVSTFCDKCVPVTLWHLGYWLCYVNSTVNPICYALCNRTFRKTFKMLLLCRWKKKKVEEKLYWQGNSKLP
Description: as §1

[6] = [3H]-NMS displacement, CHO cell membranes, tested two to four times, SEM <=10%, read-out: Muscarinic Binding Activity M4 (IC50)
[7] = [3H]-NMS displacement, CHO cell membranes, tested two to four times, SEM <=10%, read-out: Muscarinic Binding Activity M1 (IC50)
[8] = [3H]-NMS displacement, CHO cell membranes, tested two to four times, SEM <=10%, read-out: Muscarinic Binding Activity M2 (IC50)
[9] = [3H]-NMS displacement, CHO cell membranes, tested two to four times, SEM <=10%, read-out: Muscarinic Binding Activity M3 (IC50)
[10] = [3H]-NMS displacement, CHO cell membranes, tested two to four times, SEM <=10%, read-out: Muscarinic Binding Activity M5 (IC50)

Sequence of human muscarinic receptor subtype M3 (P20309 whole entry): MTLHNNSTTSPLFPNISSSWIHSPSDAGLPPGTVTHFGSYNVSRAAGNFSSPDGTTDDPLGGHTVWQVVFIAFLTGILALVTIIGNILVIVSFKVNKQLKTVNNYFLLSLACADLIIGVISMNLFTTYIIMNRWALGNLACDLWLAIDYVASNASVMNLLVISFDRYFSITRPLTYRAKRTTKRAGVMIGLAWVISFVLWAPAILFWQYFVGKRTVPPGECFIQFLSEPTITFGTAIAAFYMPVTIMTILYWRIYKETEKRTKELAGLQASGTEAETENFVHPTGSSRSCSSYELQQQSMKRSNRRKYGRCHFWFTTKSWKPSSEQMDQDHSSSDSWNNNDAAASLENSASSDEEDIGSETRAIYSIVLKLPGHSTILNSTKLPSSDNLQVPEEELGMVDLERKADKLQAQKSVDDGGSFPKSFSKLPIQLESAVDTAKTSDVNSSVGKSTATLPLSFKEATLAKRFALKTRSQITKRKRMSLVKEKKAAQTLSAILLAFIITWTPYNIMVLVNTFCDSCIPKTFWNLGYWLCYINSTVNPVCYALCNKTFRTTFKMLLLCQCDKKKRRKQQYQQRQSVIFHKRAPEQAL

For `CCCc1[nH]c2ccc3c(c2c1C(=O)OCC)CN1CCc2cc(OC)ccc2C1O3` (stereo not drawn) [Example 1, 9-Methoxy-2-propyl-11,12-dihydro-3H,6αH,13H-6-oxa-3,12α-diaza-benzo[a]cyclopent[h]anthracene-1-carboxylic acid ethyl ester], the IC50 [1, 6] was 9 nM, the IC50 [2, 7] was 4660 nM and the IC50 [3, 8] was 2000 nM. It also gave an IC50 [4, 9] of 130 nM, an IC50 [5, 10] of 3660 nM and a melting point of 191 to 193 °C.

In the case of `CCCc1c(C(=O)OCC)c2c3c(ccc2n1C)OC1c2ccc(SC)cc2CCN1C3` (stereo not drawn) [Example 2, 3-Methyl-9-methylsulfanyl-2-propyl-11,12-dihydro-3H,6aH,13H-6-oxa-3,12a-diaza-benzo[a]cyclopent[h]anthracene-1-carboxylic acid ethyl ester], the “binds to the M4 receptor more than to M1, M2, and M5 (selectivity)” value ([1]; M4 versus M1, M2 and M5) is reported as “about 1000 fold”, the “binds to the M4 receptor more than to M3 (selectivity)” value (“binds … to M3 (selectivity)” below) [1] is reported as “about 52 fold” and the IC50 [1, 6] is reported as 7 nM. The IC50 [2, 7] was 7500 nM, the IC50 [3, 8] was 7000 nM and the IC50 [4, 9] was 370 nM. The IC50 [5, 10] was 3000 nM and the melting point was 139 to 143 °C.

For `CCCc1c(C(=O)OCC)c2c3c(ccc2n1C)OC1c2ccc(OC)cc2CCN1C3` (stereo not drawn) [Example 3, 9-Methoxy-3-methyl-2-propyl-11,12-dihydro-3H,6aH,13H-6-oxa-3,12a-diaza-benzo[a]cyclopent[h]anthracene-1-carboxylic acid ethyl ester], the IC50 [1, 6] was 7 nM, the IC50 [2, 7] was 3000 nM and the IC50 [3, 8] was 950 nM. It also gave an IC50 [4, 9] of 130 nM, an IC50 [5, 10] of 6000 nM and a melting point of 150 to 151 °C.

With `CCCc1[nH]c2ccc3c(c2c1C(=O)OCC)CN1CCc2cc(SC)ccc2C1O3` (stereo not drawn) [Example 4, 9-Methylsulfanyl-2-propyl-11,12-dihydro-3H,6aH,13H-6-oxa-3,12a-diaza-benzo[a]cyclopent[h]anthracene-1-carboxylic acid ethyl ester] the “binds … to M3 (selectivity)” value [1] was “about 30 fold”, the “bind to M4 more than some of the other subtypes (selectivity)” value [1] was “about 800 fold” and the IC50 [1, 6] was 6 nM. The IC50 [2, 7] was 1400 nM, the IC50 [3, 8] was 2000 nM and the IC50 [4, 9] was 200 nM. For the same molecule, the IC50 [5, 10] was 3500 nM and the melting point was 185 to 186 °C.

With `CCCCc1[nH]c2ccc3c(c2c1C(=O)OCC)CN1CCc2cc(OC)ccc2C1O3` (stereo not drawn) [Example 5, 2-Butyl-9-methoxy-11,12-dihydro-3H,6aH,13H-6-oxa-3,12a-diaza-benzo[a]cyclopent[h]anthracene-1-carboxylic acid ethyl ester] the “binds … to M3 (selectivity)” value [1] was “about 30 fold”, the “bind to M4 more than some of the other subtypes (selectivity)” value [1] was “about 800 fold” and the IC50 [1, 6] was 6 nM. The IC50 [2, 7] was 800 nM, the IC50 [3, 8] was 550 nM and the IC50 [4, 9] was 190 nM. It also gave an IC50 [5, 10] of 13000 nM.

`CCCCc1[nH]c2ccc3c(c2c1C(=O)OCC)CN1CCc2cc(SC)ccc2C1O3` (stereo not drawn) [Example 6, 2-Butyl-9-methylsulfanyl-11,12-dihydro-3H,6aH,13H-6-oxa-3,12a-diaza-benzo[a]cyclopent[h]anthracene-1-carboxylic acid ethyl ester] showed an IC50 [1, 6] of 10 nM, an IC50 [2, 7] of 2000 nM and an IC50 [3, 8] of 4000 nM. For the same molecule, the IC50 [4, 9] was 5000 nM, the IC50 [5, 10] was 2000 nM and the melting point was 159 to 161 °C.

`CCCCCc1[nH]c2ccc3c(c2c1C(=O)OCC)CN1CCc2cc(OC)ccc2C1O3` (stereo not drawn) [Example 7, 9-Methoxy-2-pentyl-11,12-dihydro-3H,6aH,13H-6-oxa-3,12a-diaza-benzo[a]cyclopent[h]anthracene-1-carboxylic acid ethyl ester] showed an IC50 [1, 6] of 10 nM, an IC50 [2, 7] of 50000 nM and an IC50 [3, 8] of 600 nM. It also gave an IC50 [4, 9] of 200 nM, an IC50 [5, 10] of 10000 nM and a melting point of 170 to 172 °C.

Molecule `CCCCCCc1[nH]c2ccc3c(c2c1C(=O)OCC)CN1CCc2cc(OC)ccc2C1O3` (stereo not drawn) [Example 8, 2-Hexyl-9-methoxy-11,12-dihydro-3H,6aH,13H-6-oxa-3,12a-diaza-benzo[a]cyclopent[h]anthracene-1-carboxylic acid ethyl ester] has an IC50 [1, 6] of 30 nM, an IC50 [2, 7] of 2000 nM and an IC50 [3, 8] of 800 nM. For the same molecule, the IC50 [4, 9] was 400 nM, the IC50 [5, 10] was 3000 nM and the melting point was 157 to 160 °C.

`CCOC(=O)c1c(CC)n(CC)c2ccc3c(c12)CN1CCc2cc(OC)ccc2C1O3` (stereo not drawn) [Prior Art Compound Et/Et/9-OMe/Et, reference compound] showed an IC50 [1] of 20 nM, an IC50 [2] of 5000 nM and an IC50 [3] of 1000 nM. For the same molecule, the IC50 [4] was 50 nM and the IC50 [5] was 5000 nM.

`CCOC(=O)c1c(CC)[nH]c2ccc3c(c12)CN1CCc2cc(OC)ccc2C1O3` (stereo not drawn) [Prior Art Compound Et/Et/9-OMe/H, reference compound] gave an IC50 [1, 6] of 20 nM, an IC50 [2, 7] of 2000 nM and an IC50 [3, 8] of 2000 nM. For the same molecule, the IC50 [4, 9] was 200 nM and the IC50 [5, 10] was 6000 nM.

For `CCOC(=O)c1c(C)n(CC)c2ccc3c(c12)CN1CCc2cc(OC)ccc2C1O3` (stereo not drawn) [Prior Art Compound Et/Me/9-OMe/Et, reference compound], the IC50 [1] was 50 nM, the IC50 [2] was 2000 nM and the IC50 [3] was 400 nM. It also gave an IC50 [4] of 500 nM and an IC50 [5] of 3000 nM.

With `CCOC(=O)c1c(C)[nH]c2ccc3c(c12)CN1CCc2cc(OC)ccc2C1O3` (stereo not drawn) [Prior Art Compound Et/Me/9-OMe/H, reference compound] the IC50 [1, 6] was 30 nM, the IC50 [2, 7] was 3000 nM and the IC50 [3, 8] was 1000 nM. For the same molecule, the IC50 [4, 9] was 500 nM and the IC50 [5, 10] was 6000 nM.

Work on `CCOC(=O)c1c(C)n(C)c2ccc3c(c12)CN1CCc2cc(OC)ccc2C1O3` (stereo not drawn) [Prior Art Compound Et/Me/9-OMe/Me, reference compound] yielded an IC50 [1, 6] of 50 nM, an IC50 [2, 7] of 500 nM and an IC50 [3, 8] of 400 nM. The IC50 [4, 9] was 400 nM and the IC50 [5, 10] was 1000 nM.

Reference: patent US6812228B2, “Benzoxazines for use in the treatment of parkinson's disease” (Warner-Lambert Company, priority 2000, dated 2004)
